PMC4482062 (Nucleic Acids Research, 2015)
Values joined by “and” are separate entries in the source; they are usually repeats but may differ in a detail not shown here. Equal entries are not always repeated.

Key:
[1] = design: method as in PMID 10858319; conditions: in water; cited from earlier work
CmoB R315A mutant = target: T1, CmoB R315A mutant (Escherichia coli, UniProt P76291, R315A); test: Isothermal titration calorimetry, R315A mutant CmoB; type: binding
T1 construct: vector LIC-pET30a) (cleaved yes); made in house; host or cells: Escherichia coli BL21 (DE3)
T1 sequence (P76291 whole entry R315A): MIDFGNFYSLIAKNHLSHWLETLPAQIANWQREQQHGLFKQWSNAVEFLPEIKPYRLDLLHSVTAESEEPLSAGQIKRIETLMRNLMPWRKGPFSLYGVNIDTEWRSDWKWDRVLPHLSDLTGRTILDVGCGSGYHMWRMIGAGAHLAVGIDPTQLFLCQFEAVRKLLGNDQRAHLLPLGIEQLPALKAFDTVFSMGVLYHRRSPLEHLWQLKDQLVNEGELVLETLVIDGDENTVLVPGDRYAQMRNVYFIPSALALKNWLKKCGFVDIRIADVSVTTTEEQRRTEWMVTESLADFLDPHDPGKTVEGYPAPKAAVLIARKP
Description: (§1) CmoB was extensively dialyzed for 24 h against binding buffer (20-mM HEPES, pH 7.5) using a dialysis cassette with 10-kDa MWCO (Pierce). Lyophilized Cx-SAM was dissolved in the binding buffer at a final concentration of 1.3 mM. SAM was purchased from Sigma and dissolved in binding buffer at a final concentration of 10 mM. Prior to use, all titration samples were centrifuged for 20 min at 4°C. Isothermal titration calorimetry (ITC) experiments were performed at 15°C using an auto-ITC200 (MicroCal, LLC, Northhampton, MA, USA) in which the reaction cell (202.8 μl) containing CmoB (50 μM and 370 μM for Cx-SAM and SAM, respectively) was titrated with 40 × 1-μl injections of 1.3-mM Cx-SAM or 6.7-mM SAM with an equilibration time of 180 s. Raw injection traces were integrated over time, normalized per mol of ligand injected and corrected for the heat of dilution obtained from the plateau of a titration curve. Titration data were analyzed using a single-site model in Origin (version X) and Igor Pro 5/6. […] Based on the chemical synthesis, the Cx-SAM utilized in the binding assay is a racemic mixture, of which only the S-isomer is capable of acting as a substrate/ligand for CmoB. Therefore, the stoichiometry was fixed at 1:1 and the activity of the ligand was introduced as a fitting parameter for Cx-SAM.

CmoB Y200A mutant = target: T2, CmoB Y200A mutant (Escherichia coli, UniProt P76291, Y200A); test: Isothermal titration calorimetry, Y200A mutant CmoB; type: binding
T2 construct: vector LIC-pET30a) (cleaved yes); made in house; host or cells: Escherichia coli BL21 (DE3)
T2 sequence (P76291 whole entry Y200A): as the sequence (P76291 whole entry R315A) above, with Y200A, A315R counted along it
Description: as §1

CmoB = target: T3, CmoB (Escherichia coli, UniProt P76291); test: Time course of SAM-dependent mo5U modification ([14CH3]-SAM), competition with Cx-SAM; type: biochemical; conditions: 10-μM Cx-SAM, 140 μM [14CH3]-SAM, 90 min
T3 construct: vector LIC-pET30a) (cleaved yes); made in house; host or cells: Escherichia coli BL21 (DE3)
T3 sequence (P76291 whole entry): as the sequence (P76291 whole entry R315A) above, with A315R counted along it
Description: The assay was initiated by mixing 10-mM Tris (pH 8.0), 4-mM MgCl2, 140-μM [^14CH3]-SAM (Perkin Elmer), 100 μg of total tRNA prepared from cmoB-deficient cells and 2-μM CmoB in 50 μl. In competition assays to measure the effect of Cx-SAM on methylation, 10-μM Cx-SAM was added to the above mixture. […] RNA was washed with 0.2-M ammonium acetate (pH 6.0) using an MWCO 10-kDa filter by centrifugation. This washing step was repeated two more times to remove unreacted ^14C-SAM. RNA was then spotted on a DE81 filter (GE) and air-dried for 20 min. Images of the radioactive tRNA were recorded on a phosphorimaging plate (Molecular Dynamics) for 2 days and analyzed using a Molecular Dynamics Storm 860 PhosphorImager System with ImageQuant software.

CmoB K91A mutant [2] = target: T4, CmoB K91A mutant (Escherichia coli, UniProt P76291, K91A); test: Isothermal titration calorimetry, K91A mutant CmoB; type: binding
T4 construct: vector LIC-pET30a) (cleaved yes); made in house; host or cells: Escherichia coli BL21 (DE3)
T4 sequence (P76291 whole entry K91A): as the sequence (P76291 whole entry R315A) above, with K91A, A315R counted along it
Description: as §1
The titration curve was analyzed using macroscopic binding constants and enthalpies describing binding of n-molecules of Cx-SAM to tetrameric mutant CmoB. Initially, the titration curve was analyzed with all possible values of n (=1~4). […] Therefore, the titration curve was analyzed using three sets of binding constants and enthalpies (Supplementary Table 2). The fitted values of the macroscopic binding constants were compared to those expected for a case of non-cooperative binding. For both cooperative and non-cooperative binding, K1 is given by 4Ksite where 4 accounts for the number of ligand binding sites in teterameric CmoB (i.e., statistical factor) and Ksite describes the “intrinsic” affinity of each site. Then, Ksite=3.6x10^4 M^-1. The fitted value of K2 is ~ 8.4-fold higher than that calculated for the case of non-cooperative binding (6Ksite^2=7.7x10^9 M^-2), indicating positive cooperativity involved in binding of the second Cx-SAM. Since the population of K91A with three Cx-SAMs bound is negligible, binding of the third Cx-SAM is deduced to be negatively cooperative.
A possible molecular explanation for such heterogeneous cooperativity involved in the interaction between K91A and Cx-SAM is the presence of (at least) two different types of interface between the subunits in tetrameric K91A which is consistent with the structural model of the CmoB tetramer. In this model (Supplementary Figure 9), the four ligand binding sites are initially equivalent, but binding of the first ligand to any of these four sites differentially affects (increases and decreases) the affinities of the neighboring sites for the second ligand through the different subunit interfaces. This model is a variation of the classical “square” model used in the analysis of the interaction between hemoglobin and oxygen(2) and provides a molecular description of the fitted macroscopic binding constants in terms of the intrinsic affinity (Ksite) and two types of cooperativity (ω+ and ω-): K1=4Ksite; K2=2Ksite^2(1+ω++ω-); K4=Ksite^4(ω+ω-)^2. Then, Ksite=3.6x10^4 M^-1, ω+=23.8, and ω-=0.4. The value of ω is equivalent to a fold-change in the Cx-SAM affinity of a binding site in tetrameric K91A when its neighboring site is already occupied by Cx-SAM.
^aIn this model, the interaction is described by a set of binding events where n-molecules of Cx-SAM bind tetrameric CmoB (K91A) with the corresponding binding constants (Kn) and enthalpies (∆Hn°). Initially, the titration curve was analyzed by this model including all possible values of n (=1~4). […] Therefore, the titration curve was analyzed using three sets of binding constants and enthalpies.

wild-type CmoB [3] = target: T5, wild-type CmoB (Escherichia coli, UniProt P76291); test: Isothermal titration calorimetry, wild-type CmoB; type: binding
T5 construct: vector LIC-pET30a) (cleaved yes); made in house; host or cells: Escherichia coli BL21 (DE3)
T5 sequence (P76291 whole entry): as the sequence (P76291 whole entry R315A) above, with A315R counted along it
Description: as §1

CmoB K91A mutant [4] = target: T4, CmoB K91A mutant; test: In vitro LC-MS-based alkyl transfer assay, K91A CmoB; type: biochemical; conditions: Cx-SAM as alkyl donor, after 24 h
Description: (§2) The assay solution for SAM-dependent mo5U formation contained 10-mM Tris-HCl (pH 8.0), 4-mM MgCl2, 0.2-mM SAM and 20–25 μg (∼20 μM) of total tRNA prepared from cmoB-mutant E. coli cells in 50 μl. Reaction conditions for Cx-SAM-dependent cmo5U formation assay were identical, with the exception that10-μM Cx-SAM was used in place of SAM. Assays were initiated by addition of 0.1–2-μM CmoB to the above mixtures and subsequently incubated at the room temperature. The reaction was terminated by the addition of 0.1-mg/ml P1 nuclease, followed by incubation at 60°C for at least 1 h. […] Hydrolyzed nucleotides were directly applied to HPLC without further processing for LC-MS analysis as described above.

wild-type CmoB [5] = target: T5, wild-type CmoB; test: In vitro LC-MS-based alkyl transfer assay, wild-type CmoB; type: biochemical
Description: as §2

SMILES: O=c1[nH]c(=O)n([C@H]2C[C@H](O)[C@@H](CO)O2)cc1O [5-hydroxy-2′-deoxyuridine]
- pKa of the hydroxyl group on the pyrimidine ring [1]: 7.68

SMILES: Nc1ncnc2c1ncn2[C@@H]1O[C@H](C[S+](CC[C@H](N)C(=O)[O-])CC(=O)O)[C@@H](O)[C@H]1O (stereo partly drawn) [Cx-SAM, carboxy-S-adenosine-L-methionine]
- Kd (CmoB R315A mutant): 2.1 ± 0.2 µM
- K (binding constant) (CmoB R315A mutant; ITC, 15°C, single-site model, R315A): 4.7 ± 0.3 × 10^5 M^−1 and 4.7 ± 0.3 x 10^5 M^−1
- ΔH° (CmoB R315A mutant; ITC, R315A): -8.5 ± 0.1 kcal/mol
- Reduction of Cx-SAM binding affinity compared to the wild type (CmoB R315A mutant; R315A vs wild type): 4–5 fold
- ΔG° (CmoB R315A mutant; ΔG° = −RT lnK, R315A): -7.5 ± 0.1 kcal/mol
- ΔS° (CmoB R315A mutant; ΔS° = (ΔH°−ΔG°)/T, R315A): −3.5 ± 0.3 cal/mol/deg
- Kd (CmoB Y200A mutant): 1.8 ± 0.3 µM
- K (binding constant) (CmoB Y200A mutant; ITC, 15°C, single-site model, Y200A): 5.5 ± 0.8 × 10^5 M^−1 and 5.5 ± 0.8 x 10^5 M^−1
- ΔH° (CmoB Y200A mutant; ITC, Y200A): -7.3 ± 0.1 kcal/mol
- Specificity ratio K(Cx-SAM)/K(SAM) (CmoB Y200A mutant; Y200A): > 65
- Reduction of Cx-SAM binding affinity compared to the wild type (CmoB Y200A mutant; Y200A vs wild type): 4–5 fold
- ΔG° (CmoB Y200A mutant; ΔG° = −RT lnK, Y200A): -7.6 ± 0.1 kcal/mol
- ΔS° (CmoB Y200A mutant; ΔS° = (ΔH°−ΔG°)/T, Y200A): 0.8 ± 0.5 cal/mol/deg
- Effect on [14CH3]-SAM methylation of tRNA (radioactive signal) (CmoB): no detectable radioactive signal
- K (binding constant) (CmoB K91A mutant [2]; ITC, 15°C, single-site model, K91A): 9.0 ± 1.8 × 10^3 M^−1 and 9.0 ± 1.8 x 10^3 M^−1
- ΔH° (CmoB K91A mutant [2]; ITC, K91A): -16.5 ± 1.6 kcal/mol
- Kd (CmoB K91A mutant [2]; K1 (macroscopic binding constant), tetrameric K91A, 1 ligand bound): 7.14 µM
- Ksite (intrinsic affinity of each site) (CmoB K91A mutant [2]; K1=4Ksite, tetrameric K91A): 36000 M⁻¹
- Kd (CmoB K91A mutant [2]; Kd, ITC, 15°C, K91A): 111 µM and 110 µM
- ω+ (positive cooperativity factor) (CmoB K91A mutant [2]; square model, tetrameric K91A): 23.8
- ω- (negative cooperativity factor) (CmoB K91A mutant [2]; square model, tetrameric K91A): 0.4
- K2 (macroscopic binding constant) (CmoB K91A mutant [2]; tetrameric K91A, 2 ligands bound): 6.5 (± 1.4) x 10^10 M^-2
- K4 (macroscopic binding constant) (CmoB K91A mutant [2]; tetrameric K91A, 4 ligands bound): 1.6 (± 0.5) x 10^20 M^-4
- Fitted K2 relative to non-cooperative binding (CmoB K91A mutant [2]; vs 6Ksite^2): ~ 8.4 fold
- Fitted K4 relative to non-cooperative binding (CmoB K91A mutant [2]; vs Ksite^4): ~ 98.5 fold
- ΔG° (CmoB K91A mutant [2]; ΔG° = −RT lnK, K91A): -5.2 ± 0.1 kcal/mol
- ΔS° (CmoB K91A mutant [2]; ΔS° = (ΔH°−ΔG°)/T, K91A): −39.3 ± 5.4 cal/mol/deg
- ΔH° (wild-type CmoB [3]; ITC): -7.9 ± 0.1 kcal/mol
- Kd (wild-type CmoB [3]; ITC, 15°C, read-out: Kd): 0.4 ± 0.03 µM
- K (binding constant) (wild-type CmoB [3]; ITC, 15°C, single-site model): 2.5 ± 0.2 × 10^6 M^−1 and 2.5 ± 0.2 x 10^6 M^−1
- TΔS° (wild-type CmoB [3]; ITC, text): 0.55 ± 0.06 kcal/mol
- ΔG° (wild-type CmoB [3]; ITC, text): -8.44 ± 0.03 kcal/mol
- ΔH° (wild-type CmoB [3]; ITC, text): -7.88 ± 0.05 kcal/mol
- ΔS° (wild-type CmoB [3]; ITC, text): 1.92 ± 0.21 cal·mol^−1·deg^−1
- ΔG° (wild-type CmoB [3]; ΔG° = −RT lnK): -8.4 ± 0.1 kcal/mol
- ΔS° (wild-type CmoB [3]; ΔS° = (ΔH°−ΔG°)/T): 1.9 ± 0.2 cal/mol/deg
- cmo5U formation (CmoB K91A mutant [4]): No significant cmo5U signal was detected
- Time to detectable cmo5U formation (wild-type CmoB [5]; 0.1-μM wild-type CmoB, 10-μM Cx-SAM, tRNA from cmoB-defective cells): 9 min
- Time to detected cmo5U with both donors present (wild-type CmoB [5]; 10-μM Cx-SAM and 2-mM SAM): 20 min
